From patent publication US20090018111A1, “Novel Antimicrobial Medicament” (priority 2004, published 2009)
Where two headings read alike, the source gives them in different places.

Assays:
Experiment in all cases: Sensitivity test (agar dilution)
[1] = system: P. vulgaris GN7919; format: cell-based, Proteus vulgaris; details: Proteus vulgaris
Summary of the method: (§1)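 Standard Japanese agar dilution method. Drugs alone or combined were serially halved in Mueller Hinton agar, inoculated with overnight (37° C) cultures at about 10^6 CFU/ml. Values are MICs.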

[2] = system: P. vurgalis OX-19; format: cell-based, Proteus vulgaris; details: Proteus vulgaris
Summary of the method: as §1

[3] = system: S. marcescens GN6473; format: cell-based, Serratia marcescens; details: Serratia marcescens
Summary of the method: as §1

[4] = system: S. marcescens X 100; format: cell-based, Serratia marcescens
Summary of the method: as §1

[5] = system: E. aerogenes ATCC13048; format: cell-based, Enterobacter aerogenes; details: Klebsiella aerogenes
Summary of the method: as §1

[6] = system: M. catarrhalis ATCC25238; format: cell-based, Moraxella catarrhalis; details: Moraxella catarrhalis
Summary of the method: as §1

[7] = system: M. catarrhalis ATCC8176; format: cell-based, Moraxella catarrhalis; details: Moraxella catarrhalis
Summary of the method: as §1

Structure (SMILES): C[C@H]1C=C(c2csc(SC3=C(C(=O)O)N4C(=O)[C@H]([C@@H](C)O)[C@H]4[C@H]3C)n2)CN1 [SM, (4R,5S,6S)-6-[(1R)-1-Hydroxyethyl]-4-methyl-3-({4-[(5S)-5-methyl-2,5-dihydro-1H-pyrrol-3-yl]-1,3-thiazol-2-yl}sulfanyl)-7-oxo-1-azabicyclo[3.2.0]hept-2-ene-2-carboxylic acid]
- MIC ([1]; GN7919, Concomitant (DRPM:SM = 1:1), P. vulgaris GN7919, read-out: MIC concomitant): 0.063 µg/mL
- MIC ([1]; GN7919, Concomitant (IPM:SM = 1:1), read-out: MIC): 0.5 µg/mL
- MIC ([1]; GN7919, Concomitant (MEPM:SM = 1:1), read-out: MIC): 0.031 µg/mL
- MIC ([1]; GN7919, Concomitant (MEPM:SM = 1:2), read-out: MIC): 0.063 µg/mL
- MIC ([1]; GN7919, Concomitant (MEPM:SM = 1:4), read-out: MIC): 0.125 µg/mL
- MIC ([1]; GN7919, Concomitant (PAPM:SM = 1:1), P. vulgaris GN7919, read-out: MIC concomitant): 0.5 µg/mL
- MIC ([1]; GN7919, Concomitant (PIPC:SM = 1:1), P. vulgaris GN7919, read-out: MIC concomitant): 0.5 µg/mL
- MIC ([1]; GN7919, Concomitant drug (MEPM:SM = 2:1), read-out: MIC): 0.016 µg/mL
- MIC ([1]; GN7919, alone, read-out: MIC): 1 µg/mL
- MIC ([1]; GN7919, drug alone, P. vulgaris GN7919, read-out: MIC alone): 1 µg/mL
- MIC ([2]; OX19, Concomitant (IPM:SM = 1:1)): 0.063 µg/mL
- MIC ([2]; OX19, Concomitant (MEPM:SM = 1:1)): ≤ 0.016 µg/mL
- MIC ([2]; OX19, Concomitant (MEPM:SM = 1:2)): ≤ 0.031 µg/mL
- MIC ([2]; OX19, Concomitant (MEPM:SM = 1:4)): ≤ 0.063 µg/mL
- MIC ([2]; OX19, Concomitant drug (MEPM:SM = 2:1)): 0.016 µg/mL
- MIC ([2]; OX19, alone): 0.063 µg/mL
- MIC ([2]; OX19, read-out: MIC concomitant, Concomitant (AZT:SM = 1:1), P. vurgalis OX-19): 0.004 µg/mL
- MIC ([2]; OX19, read-out: MIC concomitant, Concomitant (BIPM:SM = 1:1), P. vurgalis OX-19): 0.031 µg/mL
- MIC ([2]; OX19, read-out: MIC concomitant, Concomitant (CAZ:SM = 1:1), P. vurgalis OX-19): 0.008 µg/mL
- MIC ([2]; OX19, read-out: MIC concomitant, Concomitant (CPFX:SM = 1:1), P. vurgalis OX-19): 0.008 µg/mL
- MIC ([2]; OX19, read-out: MIC concomitant, Concomitant (DRPM:SM = 1:1), P. vurgalis OX-19): 0.031 µg/mL
- MIC ([2]; OX19, read-out: MIC concomitant, Concomitant (PAPM:SM = 1:1), P. vurgalis OX-19): 0.063 µg/mL
- MIC ([2]; OX19, read-out: MIC concomitant, Concomitant (PIPC:SM = 1:1), P. vurgalis OX-19): ≤ 0.002 µg/mL
- MIC ([3]; GN6473, Concomitant (AZT:SM = 1:1), S. marcescens GN6473, read-out: MIC concomitant): 0.25 µg/mL
- MIC ([3]; GN6473, Concomitant (BIPM:SM = 1:1), S. marcescens GN6473, read-out: MIC concomitant): 0.125 µg/mL
- MIC ([3]; GN6473, Concomitant (CAZ:SM = 1:1), S. marcescens GN6473, read-out: MIC concomitant): 0.5 µg/mL
- MIC ([3]; GN6473, Concomitant (CPFX:SM = 1:1), S. marcescens GN6473, read-out: MIC concomitant): 1 µg/mL
- MIC ([3]; GN6473, Concomitant (DRPM:SM = 1:1), S. marcescens GN6473, read-out: MIC concomitant): 0.063 µg/mL
- MIC ([3]; GN6473, Concomitant (IPM:SM = 1:1), read-out: MIC): 0.25 µg/mL
- MIC ([3]; GN6473, Concomitant (MEPM:SM = 1:1), read-out: MIC): 0.031 µg/mL
- MIC ([3]; GN6473, Concomitant (MEPM:SM = 1:2), read-out: MIC): 0.063 µg/mL
- MIC ([3]; GN6473, Concomitant (MEPM:SM = 1:4), read-out: MIC): 0.125 µg/mL
- MIC ([3]; GN6473, Concomitant (PAPM:SM = 1:1), S. marcescens GN6473, read-out: MIC concomitant): 0.25 µg/mL
- MIC ([3]; GN6473, Concomitant (PIPC:SM = 1:1), S. marcescens GN6473, read-out: MIC concomitant): 4 µg/mL
- MIC ([3]; GN6473, Concomitant drug (MEPM:SM = 2:1), read-out: MIC): 0.016 µg/mL
- MIC ([3]; GN6473, alone, read-out: MIC): 4 µg/mL
- MIC ([3]; GN6473, drug alone, S. marcescens GN6473, read-out: MIC alone): 4 µg/mL
- MIC ([4]; Serratia marcescens, X100, Concomitant (AZT:SM = 1:1), S. marcescens X 100, read-out: MIC concomitant): 0.031 µg/mL
- MIC ([4]; Serratia marcescens, X100, Concomitant (BIPM:SM = 1:1), S. marcescens X 100, read-out: MIC concomitant): 0.063 µg/mL
- MIC ([4]; Serratia marcescens, X100, Concomitant (CAZ:SM = 1:1), S. marcescens X 100, read-out: MIC concomitant): 0.125 µg/mL
- MIC ([4]; Serratia marcescens, X100, Concomitant (CPFX:SM = 1:1), S. marcescens X 100, read-out: MIC concomitant): 0.063 µg/mL
- MIC ([4]; Serratia marcescens, X100, Concomitant (DRPM:SM = 1:1), S. marcescens X 100, read-out: MIC concomitant): 0.031 µg/mL
- MIC ([4]; Serratia marcescens, X100, Concomitant (IPM:SM = 1:1), read-out: MIC): 0.125 µg/mL
- MIC ([4]; Serratia marcescens, X100, Concomitant (MEPM:SM = 1:1), read-out: MIC): ≤ 0.016 µg/mL
- MIC ([4]; Serratia marcescens, X100, Concomitant (MEPM:SM = 1:2), read-out: MIC): ≤ 0.031 µg/mL
- MIC ([4]; Serratia marcescens, X100, Concomitant (MEPM:SM = 1:4), read-out: MIC): ≤ 0.063 µg/mL
- MIC ([4]; Serratia marcescens, X100, Concomitant (PAPM:SM = 1:1), S. marcescens X 100, read-out: MIC concomitant): 0.125 µg/mL
- MIC ([4]; Serratia marcescens, X100, Concomitant (PIPC:SM = 1:1), S. marcescens X 100, read-out: MIC concomitant): 0.25 µg/mL
- MIC ([4]; Serratia marcescens, X100, Concomitant drug (MEPM:SM = 2:1), read-out: MIC): 0.016 µg/mL
- MIC ([4]; Serratia marcescens, X100, alone, read-out: MIC): 0.5 µg/mL
- MIC ([4]; Serratia marcescens, X100, drug alone, S. marcescens X 100, read-out: MIC alone): 1 µg/mL
- MIC ([4]; alone): 1 µg/mL
- MIC ([5]; ATCC13048, Concomitant (AZT:SM = 1:1), E. aerogenes ATCC13048, read-out: MIC concomitant): 8 µg/mL
- MIC ([5]; ATCC13048, Concomitant (BIPM:SM = 1:1), E. aerogenes ATCC13048, read-out: MIC concomitant): 0.063 µg/mL
- MIC ([5]; ATCC13048, Concomitant (CAZ:SM = 1:1), E. aerogenes ATCC13048, read-out: MIC concomitant): 8 µg/mL
- MIC ([5]; ATCC13048, Concomitant (CPFX:SM = 1:1), E. aerogenes ATCC13048, read-out: MIC concomitant): 0.031 µg/mL
- MIC ([5]; ATCC13048, Concomitant (DRPM:SM = 1:1), E. aerogenes ATCC13048, read-out: MIC concomitant): 0.031 µg/mL
- MIC ([5]; ATCC13048, Concomitant (IPM:SM = 1:1), read-out: MIC): 0.125 µg/mL
- MIC ([5]; ATCC13048, Concomitant (MEPM:SM = 1:1), read-out: MIC): ≤ 0.016 µg/mL
- MIC ([5]; ATCC13048, Concomitant (MEPM:SM = 1:2), read-out: MIC): 0.063 µg/mL
- MIC ([5]; ATCC13048, Concomitant (MEPM:SM = 1:4), read-out: MIC): 0.125 µg/mL
- MIC ([5]; ATCC13048, Concomitant (PAPM:SM = 1:1), E. aerogenes ATCC13048, read-out: MIC concomitant): 0.25 µg/mL
- MIC ([5]; ATCC13048, Concomitant (PIPC:SM = 1:1), E. aerogenes ATCC13048, read-out: MIC concomitant): 8 µg/mL
- MIC ([5]; ATCC13048, Concomitant drug (MEPM:SM = 2:1), read-out: MIC): 0.016 µg/mL
- MIC ([5]; ATCC13048, alone, read-out: MIC): 8 µg/mL
- MIC ([5]; ATCC13048, drug alone, E. aerogenes ATCC13048, read-out: MIC alone): 8 µg/mL
- MIC ([6]; ATCC25238, Concomitant (AZT:SM = 1:1), M. catarrhalis ATCC25238, read-out: MIC concomitant): ≤ 0.002 µg/mL
- MIC ([6]; ATCC25238, Concomitant (BIPM:SM = 1:1), M. catarrhalis ATCC25238, read-out: MIC concomitant): ≤ 0.002 µg/mL
- MIC ([6]; ATCC25238, Concomitant (CAZ:SM = 1:1), M. catarrhalis ATCC25238, read-out: MIC concomitant): ≤ 0.002 µg/mL
- MIC ([6]; ATCC25238, Concomitant (CPFX:SM = 1:1), M. catarrhalis ATCC25238, read-out: MIC concomitant): ≤ 0.002 µg/mL
- MIC ([6]; ATCC25238, Concomitant (DRPM:SM = 1:1), M. catarrhalis ATCC25238, read-out: MIC concomitant): ≤ 0.002 µg/mL
- MIC ([6]; ATCC25238, Concomitant (IPM:SM = 1:1), read-out: MIC): ≤ 0.002 µg/mL
- MIC ([6]; ATCC25238, Concomitant (MEPM:SM = 1:1), read-out: MIC): ≤ 0.016 µg/mL
- MIC ([6]; ATCC25238, Concomitant (MEPM:SM = 1:2), read-out: MIC): ≤ 0.031 µg/mL
- MIC ([6]; ATCC25238, Concomitant (MEPM:SM = 1:4), read-out: MIC): ≤ 0.063 µg/mL
- MIC ([6]; ATCC25238, Concomitant (PAPM:SM = 1:1), M. catarrhalis ATCC25238, read-out: MIC concomitant): ≤ 0.002 µg/mL
- MIC ([6]; ATCC25238, Concomitant (PIPC:SM = 1:1), M. catarrhalis ATCC25238, read-out: MIC concomitant): ≤ 0.002 µg/mL
- MIC ([6]; ATCC25238, Concomitant drug (MEPM:SM = 2:1), read-out: MIC): ≤ 0.008 µg/mL
- MIC ([6]; ATCC25238, drug alone, M. catarrhalis ATCC25238, read-out: MIC alone): ≤ 0.002 µg/mL
- MIC ([7]; ATCC8176, Concomitant (AZT:SM = 1:1), M. catarrhalis ATCC8176, read-out: MIC concomitant): ≤ 0.002 µg/mL
- MIC ([7]; ATCC8176, Concomitant (BIPM:SM = 1:1), M. catarrhalis ATCC8176, read-out: MIC concomitant): ≤ 0.002 µg/mL
- MIC ([7]; ATCC8176, Concomitant (CAZ:SM = 1:1), M. catarrhalis ATCC8176, read-out: MIC concomitant): ≤ 0.002 µg/mL
- MIC ([7]; ATCC8176, Concomitant (CPFX:SM = 1:1), M. catarrhalis ATCC8176, read-out: MIC concomitant): ≤ 0.002 µg/mL
- MIC ([7]; ATCC8176, Concomitant (DRPM:SM = 1:1), M. catarrhalis ATCC8176, read-out: MIC concomitant): ≤ 0.002 µg/mL
- MIC ([7]; ATCC8176, Concomitant (IPM:SM = 1:1), read-out: MIC): ≤ 0.002 µg/mL
- MIC ([7]; ATCC8176, Concomitant (MEPM:SM = 1:1), read-out: MIC): ≤ 0.016 µg/mL
- MIC ([7]; ATCC8176, Concomitant (MEPM:SM = 1:2), read-out: MIC): ≤ 0.031 µg/mL
- MIC ([7]; ATCC8176, Concomitant (MEPM:SM = 1:4), read-out: MIC): ≤ 0.063 µg/mL
- MIC ([7]; ATCC8176, Concomitant (PAPM:SM = 1:1), M. catarrhalis ATCC8176, read-out: MIC concomitant): ≤ 0.002 µg/mL
- MIC ([7]; ATCC8176, Concomitant (PIPC:SM = 1:1), M. catarrhalis ATCC8176, read-out: MIC concomitant): ≤ 0.002 µg/mL
- MIC ([7]; ATCC8176, Concomitant drug (MEPM:SM = 2:1), read-out: MIC): ≤ 0.008 µg/mL
- MIC ([7]; ATCC8176, drug alone, M. catarrhalis ATCC8176, read-out: MIC alone): ≤ 0.002 µg/mL
